Test results from patent US20230078764A1 (Yumanity Therapeutics, Inc., priority 2019, published 2023).

How the values were obtained:
[1] = biological target: T1, human SCD5 (Homo sapiens, UniProt Q86SK9); assay: Growth inhibition of yeast strain expressing human SCD5 as sole desaturase (OLE1 deleted), OD600 readout; format: cell-based; details: yeast strain expressing human SCD5 as sole desaturase; growth (OD600) after 40 h at 30° C.; read-out: SCD5 IC50
T1 construct: expressed in transfected cells; host or cells: yeast strain with OLE1 deleted, plasmid-borne human SCD5 (selected in SD-Ura)
T1 sequence (Q86SK9 1-330): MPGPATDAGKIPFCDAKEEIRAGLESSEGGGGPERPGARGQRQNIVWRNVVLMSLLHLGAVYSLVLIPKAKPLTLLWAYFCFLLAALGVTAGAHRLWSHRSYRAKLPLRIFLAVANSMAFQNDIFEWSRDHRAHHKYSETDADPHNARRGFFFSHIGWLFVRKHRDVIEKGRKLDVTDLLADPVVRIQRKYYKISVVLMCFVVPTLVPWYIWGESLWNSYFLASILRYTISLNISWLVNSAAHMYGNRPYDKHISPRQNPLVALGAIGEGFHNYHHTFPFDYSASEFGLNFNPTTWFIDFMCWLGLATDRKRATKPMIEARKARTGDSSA

[2] = biological target: T2, human SCD1 (Homo sapiens, UniProt O00767); assay: Growth inhibition of yeast strain expressing human SCD1 as sole desaturase (OLE1 deleted), OD600 readout; format: cell-based; details: yeast strain expressing human SCD1 as sole desaturase; growth (OD600) after 40 h at 30° C.; read-out: SCD1 IC50
T2 construct: expressed in transfected cells; host or cells: yeast strain with OLE1 deleted, plasmid-borne human SCD1 (selected in SD-Ura)
T2 sequence (O00767 1-359): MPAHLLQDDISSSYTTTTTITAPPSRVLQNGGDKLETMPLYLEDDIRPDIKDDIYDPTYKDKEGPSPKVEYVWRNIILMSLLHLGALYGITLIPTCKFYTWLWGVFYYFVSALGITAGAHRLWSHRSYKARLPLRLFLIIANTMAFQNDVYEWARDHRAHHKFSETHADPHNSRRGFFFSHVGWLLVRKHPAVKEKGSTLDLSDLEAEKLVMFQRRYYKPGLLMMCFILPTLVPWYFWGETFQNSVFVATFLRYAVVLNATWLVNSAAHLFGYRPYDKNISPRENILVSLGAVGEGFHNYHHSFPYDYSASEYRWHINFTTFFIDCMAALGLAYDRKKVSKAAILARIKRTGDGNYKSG

IC50 [1] [nM] | IC50 [2] [nM] | Compound
20 | 1080 | CCn1ccc(C(=O)Nc2ccc(Cc3cccc(F)c3)cn2)n1 [Compound 101, 1-ethyl-N-(5-(3-fluorobenzyl)pyridin-2-yl)-1H-pyrazole-3-carboxamide]
80 | 160 | Cc1nnc(C(=O)Nc2ccc(Cc3cccc(Cl)c3)cn2)s1 [Compound 103, N-(5-(3-chlorobenzyl)pyridin-2-yl)-5-methyl-1,3,4-thiadiazole-2-carboxamide]
40 | 40 | Cc1nnc(C(=O)Nc2ccc(Cc3cccc(Cl)c3)cn2)o1 [Compound 104, N-(5-(3-chlorobenzyl)pyridin-2-yl)-5-methyl-1,3,4-oxadiazole-2-carboxamide]
1060 | > 45000 | Cc1cc(C(=O)Nc2ccc(Cc3cccc(F)c3)cn2)no1 [Compound 107, N-(5-(3-fluorobenzyl)pyridin-2-yl)-5-methylisoxazole-3-carboxamide]
1400 | 7610 | Cn1cc(C(=O)Nc2ccc(Cc3cccc(Cl)c3)cn2)ncc1=O [Compound 108, N-(5-(3-chlorobenzyl)pyridin-2-yl)-4-methyl-5-oxo-4,5-dihydropyrazine-2-carboxamide]
280 | 370 | Cn1nccc(NC(=O)c2ccc(Cc3cccc(F)c3)cn2)c1=O [Compound 109, 5-(3-fluorobenzyl)-N-(2-methyl-3-oxo-2,3-dihydropyridazin-4-yl)picolinamide]
220 | 3940 | COCc1ncc(C(=O)Nc2ccc(Cc3cccc(Cl)c3)cn2)c(OC)n1 [Compound 110, N-(5-(3-chlorobenzyl)pyridin-2-yl)-4-methoxy-2-(methoxymethyl)pyrimidine-5-carboxamide]
10 | 10 | O=C(Nc1ccc(Cc2cc(F)cc(Cl)c2)cn1)c1ccc(CO)nc1 [Compound 111, N-(5-(3-chloro-5-fluorobenzyl)pyridin-2-yl)-6-(hydroxymethyl)nicotinamide]
10 | 80 | Cc1nccc(C(=O)Nc2ccc(Cc3ccc(F)c(C#N)c3)cn2)n1 [Compound 113, N-(5-(3-cyano-4-fluorobenzyl)pyridin-2-yl)-2-methylpyrimidine-4-carboxamide]
10 | 50 | Cc1nccc(C(=O)Nc2ccc(Cc3cccc(Cl)c3)cn2)n1 [Compound 114, N-(5-(3-chlorobenzyl)pyridin-2-yl)-2-methylpyrimidine-4-carboxamide]
50 | > 45000 | Cc1nccc(NC(=O)c2ccc(Cc3cccc(F)c3)cn2)n1 [Compound 115, 5-(3-Fluorobenzyl)-N-(2-methylpyrimidin-4-yl)picolinamide]
70 | 630 | Cn1cc(C(=O)Nc2ccc(Cc3cccc(F)c3)cn2)cc(F)c1=O [Compound 117, 5-fluoro-N-(5-(3-fluorobenzyl)pyridin-2-yl)-1-methyl-6-oxo-1,6-dihydropyridine-3-carboxamide]
440 | > 45000 | CC1CC(C(=O)Nc2ccc(Cc3cccc(F)c3)cn2)=NN(C)C1=O (stereo not shown) [Compound 118, N-(5-(3-fluorobenzyl)pyridin-2-yl)-1,5-dimethyl-6-oxo-1,4,5,6-tetrahydropyridazine-3-carboxamide]
10 | 10 | O=C(Nc1ccc(Cc2cccc(F)c2)cn1)c1ccc(CO)nc1 [Compound 119, N-(5-(3-fluorobenzyl)pyridin-2-yl)-6-(hydroxymethyl)nicotinamide]
30 | > 45000 | N#Cc1ccc(C(=O)Nc2ccc(Cc3cccc(Cl)c3)cn2)cn1 [Compound 120, N-(5-(3-chlorobenzyl)pyridin-2-yl)-6-cyanonicotinamide]
20 | 20 | NCc1ccc(C(=O)Nc2ccc(Cc3cccc(Cl)c3)cn2)cn1 [Compound 121, 6-(aminomethyl)-N-(5-(3-chlorobenzyl)pyridin-2-yl)nicotinamide 2,2,2-trifluoroacetate]

More lines, now with the values behind:

Compound | IC50 [1] [nM] | IC50 [2] [nM]
CN1N=C(NC(=O)c2ccc(Cc3ccc(F)c(F)c3)cn2)CCC1=O [Compound 87, 5-(3,4-Difluorobenzyl)-N-(1-methyl-6-oxo-1,4,5,6-tetrahydropyridazin-3-yl)picolinamide] | 280 | > 45000
Cn1nc(NC(=O)c2ccc(Cc3cccc(F)c3)cn2)ccc1=O [Compound 88, 5-(3-Fluorobenzyl)-N-(1-methyl-6-oxo-1,6-dihydropyridazin-3-yl)picolinamide] | 20 | 650
Cn1nc(NC(=O)c2ccc(Cc3cccc(Cl)c3)cn2)ccc1=O [Compound 89, 5-(3-Chlorobenzyl)-N-(1-methyl-6-oxo-1,6-dihydropyridazin-3-yl)picolinamide] | 10 | 110
CN1N=C(NC(=O)c2ccc(Cc3cccc(F)c3)cn2)CCC1=O [Compound 90, 5-(3-Fluorobenzyl)-N-(1-methyl-6-oxo-1,4,5,6-tetrahydropyridazin-3-yl)picolinamide] | 620 | 18000
Cn1ccc(C(=O)Nc2ccc(Cc3cccc(Cl)c3)cn2)n1 [Compound 91, N-(5-(3-chlorobenzyl)pyridin-2-yl)-1-methyl-1H-pyrazole-3-carboxamide] | 10 | 10
Cn1ccc(C(=O)Nc2ccc(Cc3ccc(F)c(F)c3)cn2)n1 [Compound 92, N-(5-(3,4-difluorobenzyl)pyridin-2-yl)-1-methyl-1H-pyrazole-3-carboxamide] | 20 | 110
Cn1ccc(C(=O)Nc2ccc(Cc3ccc(F)cc3)cn2)n1 [Compound 93, N-(5-(4-fluorobenzyl)pyridin-2-yl)-1-methyl-1H-pyrazole-3-carboxamide] | 20 | 550
Cn1cc(C(=O)Nc2ccc(Cc3cccc(Cl)c3)cn2)cn1 [Compound 94, N-(5-(3-chlorobenzyl)pyridin-2-yl)-1-methyl-1H-pyrazole-4-carboxamide] | 10 | 30
Cn1ccc(NC(=O)c2ccc(Cc3cccc(F)c3)cn2)n1 [Compound 95, 5-(3-fluorobenzyl)-N-(1-methyl-1H-pyrazol-3-yl)picolinamide] | 10 | > 45000
Cn1ccc(C(=O)Nc2ccc(Cc3cc(F)cc(C#N)c3)cn2)n1 [Compound 96, N-(5-(3-cyano-5-fluorobenzyl)pyridin-2-yl)-1-methyl-1H-pyrazole-3-carboxamide] | 130 | 1080
CCn1ccc(C(=O)Nc2ccc(Cc3cc(F)cc(F)c3)cn2)n1 [Compound 97, N-(5-(3,5-difluorobenzyl)pyridin-2-yl)-1-ethyl-1H-pyrazole-3-carboxamide] | 20 | 1100
CCn1ccc(C(=O)Nc2ccc(Cc3ccc(F)c(F)c3)cn2)n1 [Compound 98, N-(5-(3,4-difluorobenzyl)pyridin-2-yl)-1-ethyl-1H-pyrazole-3-carboxamide] | 40 | 2960
CCn1ccc(C(=O)Nc2ccc(Cc3cc(F)cc(Cl)c3)cn2)n1 [Compound 99, N-(5-(3-chloro-5-fluorobenzyl)pyridin-2-yl)-1-ethyl-1H-pyrazole-3-carboxamide] | 10 | 140
CCn1ccc(C(=O)Nc2ccc(Cc3cccc(Cl)c3)cn2)n1 [Compound 100, N-(5-(3-chlorobenzyl)pyridin-2-yl)-1-ethyl-1H-pyrazole-3-carboxamide] | 20 | 1740
CCn1ccc(C(=O)Nc2ccc(Cc3ccc(F)cc3)cn2)n1 [Compound 102, 1-ethyl-N-(5-(4-fluorobenzyl)pyridin-2-yl)-1H-pyrazole-3-carboxamide] | 80 | 10300
CN1N=C(C(=O)Nc2ccc(Cc3cccc(Cl)c3)cn2)CC1=O [Compound 105, N-(5-(3-chlorobenzyl)pyridin-2-yl)-1-methyl-5-oxo-4,5-dihydro-1H-pyrazole-3-carboxamide] | 830 | > 45000
Cn1nc(C(=O)Nc2ccc(Cc3cccc(F)c3)cn2)cc1O [Compound 106, N-(5-(3-fluorobenzyl)pyridin-2-yl)-5-hydroxy-1-methyl-1H-pyrazole-3-carboxamide] | 1240 | > 45000
O=C(Nc1ccc(Cc2ccc(F)c(Cl)c2)cn1)c1ccc(CO)nc1 [Compound 112, N-(5-(3-chloro-4-fluorobenzyl)pyridin-2-yl)-6-(hydroxymethyl)nicotinamide] | 10 | 10
O=C(Nc1ccc(Cc2ccc(F)cc2)cn1)c1ccc(CO)nc1 [Compound 116, N-(5-(4-fluorobenzyl)pyridin-2-yl)-6-(hydroxymethyl)nicotinamide] | 10 | 10
